The record followed here is paper PMC12036875, “Mitochondria-targeting natural product rhein conjugated with dichloroacetate as the dual inhibitor of glycolysis and oxidative phosphorylation to off energize cancer cells and induce ROS storm” (Theranostics, 2025).

Experiment [1] relates to 4T1 cells. Put plainly: Mitochondrial membrane potential assay, JC-1. The settings on record: 6.25 μM, 24 h; for JC-1 green/red fluorescence (Δψm), in words: vs control. It counts as cell-based, Mouse. From the text: On the other hand, rhein could also disturb mitochondria, the camp of OXPHOS, to further prevent cancer cells from obtaining ATP by inducing pathological opening of mPTP [30]. We first detected mPTP on 4T1 cancer cells treated with indicated drugs according to the mPTP assay kit. The green fluorescence of Calcein AM in mitochondria would vanish when the quencher entered mitochondria through the opened mPTP channel. […] The sustained opening of mPTP along with the loss of Δψm. Thus, we further examined the Δψm of 4T1 cancer cells with JC-1 fluorescence dyes and tetramethylrhodamine, ethyl ester (TMRE) probe. The JC-1 dyes underwent a transition from aggregated red fluorescence to monomeric green fluorescence with mitochondrial depolarization in cells, and the increase of green/red fluorescence intensity ratio of JC-1 dyes indicated mitochondrial depolarization.
TMRE is a lipophilic cationic fluorescent probe (Ex = 550 nm, Em = 575 nm). The accumulation of TMRE within the mitochondria would reduce with the mitochondrial depolarization, resulting in a decrease in fluorescence intensity. […] The integrity of mitochondria is significant for mitochondrial bioenergy production. Given the influence of ETC, NADH dehydrogenase, ATP synthase and the decrease of Δψm, we speculated that the ATP production from OXPHOS would be hindered by Rhein-DCA conjugate. Mitochondrial bioenergetic processes of 4T1 cells was measured by oxygen consumption rate (OCR) to reflect the capability of OXPHOS.
JC-1: The Δψm was performed using the JC-1 assay with flow cytometry and confocal microscope. 4T1 cells were separately seeded into 6-well plates and confocal dishes at a density of 10 × 10^4 cells per well and cultured at 37 °C for 24 h. Cells were cultured with PBS, rhein (6.25 μM), DCA (6.25 μM), R + D (6.25 μM + 6.25 μM) and Rhein-DCA (6.25 μM) for another 24 h. […] Samples were then immediately detected by flow cytometry and imaged with confocal microscope.

The test system of experiment [2] is 4T1 cells. Put plainly: Scratch (migration) assay. It is filed as cell-based, Mouse. The conditions noted are these: 6.25 μM, 24 h. As to the method: Cellular migration is the pivotal characteristic of cancer metastasis. […] Considering the inhibition of the glycolysis pathway resulting in a decrease of lactate, we studied the migration behavior of aggressive 4T1 cells in vitro. The results of scratch assay were shown in Figure S15, after being treated with different drugs for 24 h, the wound borders of 4T1 cells gradually got closer in control, rhein, DCA and R + D groups, and the migration rates reached approximately 40%.
4T1 cells were seeded in 6-well plate and incubated for 24 h. A straight scratch line across the cell monolayer was marked at the bottom of the plate with 200 μL pipette tip. Plate was washed twice with PBS to remove the detached cells. 6.25 μM of indicated drugs were added into each well, then the wound borders of cells were imaged at 0 h, 12 h and 24 h, respectively. The migration rate was calculated as follows: migration rate (%) = (initial scratch area - final scratch area) / initial scratch area × 100%, and the scratch area was processed with the Image J derivatives Fiji software.

A further experiment deals with T1, PDK1 (Homo sapiens, UniProt O15530).
T1 construct: purchased Promega Biotech Co., Ltd (USA)
T1 sequence (O15530 1-556): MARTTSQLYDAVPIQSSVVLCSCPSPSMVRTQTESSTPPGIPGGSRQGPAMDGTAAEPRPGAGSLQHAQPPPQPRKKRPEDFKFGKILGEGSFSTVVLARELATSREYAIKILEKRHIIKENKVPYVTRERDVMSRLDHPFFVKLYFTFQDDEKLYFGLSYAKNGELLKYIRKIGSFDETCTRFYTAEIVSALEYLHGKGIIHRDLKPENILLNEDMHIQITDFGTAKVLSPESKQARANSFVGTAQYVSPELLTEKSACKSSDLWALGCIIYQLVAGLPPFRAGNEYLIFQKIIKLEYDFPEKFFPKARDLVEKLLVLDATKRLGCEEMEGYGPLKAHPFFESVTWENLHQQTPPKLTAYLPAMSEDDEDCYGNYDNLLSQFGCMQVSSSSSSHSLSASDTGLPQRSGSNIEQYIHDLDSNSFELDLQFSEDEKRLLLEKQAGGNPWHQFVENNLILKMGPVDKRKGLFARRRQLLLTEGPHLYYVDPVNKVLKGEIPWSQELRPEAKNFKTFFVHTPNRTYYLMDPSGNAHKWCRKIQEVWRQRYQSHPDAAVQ
The experiment is described as follows: PDK1 kinase activity assay (ADP-Glo). It is filed as biochemical. The conditions noted are these: 0.08, 0.4, 2 μM; 30 min pre-incubation; effect of Rhein-DCA at 2 μM. As to the method:
The elevated glycolytic metabolism in cancer cells would be blocked when the activity of the gate enzyme PDH was resumed through inhibiting overexpression of PDK1, followed by a decrease in lactate and energy production (Figure 2A). ADP-Glo^TM Kinase assay was initially employed to investigate the potential of Rhein-DCA conjugate to suppress PDK1 activity in vitro. PDK1 were separately incubated with rhein, DCA, and Rhein-DCA conjugate for 30 min for better binding, then the enzymatic substrate was added to the mixture to initiate the reaction. Finally, the luminescent signal representing PDK1 activity was recorded once the detection procedures were completed. More detailed experimental information was presented in the supporting information.
The inhibitory effect of PDK1 kinase was evaluated with the […] kinase assay. Firstly, PDK1 enzyme, PDK tide, ATP, and indicated drugs (dissolved in DMSO) were dissolved in kinase buffer. Then, 5 μL of compounds (rhein, DCA and Rhein-DCA) with diverse concentrations and 10 μL of PDK1 enzyme were dispensed to the 96-well plate and incubated for 30 min at room temperature. Next, 10 μL of PDK tide/ATP mixture was added and incubated at room temperature for 60 min. Finally, to halt the reaction and deplete the remaining ATP, 25 μL of ADP-Glo™ reagent was added to each well and incubated at room temperature for 40 min. 50 μL of kinase detection reagent was added and incubated at room temperature for another 30 min. Ultimately, the luminescence signal was recorded by multi-mode microplate reader (Integration time: 1 s). The concentrations of reagents employed in this assay were as follows: […]
(In general: In ADP-Glo the light output rises with the ADP produced.)

Regarding `O=C(O)C(Cl)Cl` [DCA, Dichloroacetate], the “JC-1 green/red fluorescence (Δψm), in words” value in the experiment with 4T1 cells [1] was “did not affect”. In addition, the migration rate result in the experiment on 4T1 cells [2] is “approximately 40%”. Moreover, at PDK1, the “PDK1 activity (luminescent signal)” value is “did not exhibit obvious differences”.

In the case of `O=C(O)c1cc(O)c2c(c1)C(=O)c1cccc(O)c1C2=O` [Rhein, 4,5-dihydroxyanthraquinone-2-carboxylic acid], the “JC-1 green/red fluorescence (Δψm), in words” value in the experiment on 4T1 cells [1] is recorded as “relatively increased green/red ratio”. Besides, in the experiment with 4T1 cells [2], the migration rate result was “approximately 40%”. The “PDK1 activity (luminescent signal)” value on PDK1 is “almost negligible”.

For `O=C(OCCOC(=O)C(Cl)Cl)c1cc(O)c2c(c1)C(=O)c1cccc(O)c1C2=O` [Rhein-DCA], the “JC-1 green/red ratio relative to control group” value with 4T1 cells [1] is on record as “about 7 fold”. In the experiment with 4T1 cells [2], this compound came in with a migration rate of 8%. On PDK1, the “PDK1 activity (luminescent signal)” value was “dramatically decreased”.
